Measurements published in patent publication US20240336658A1, “CYCLIC PEPTIDE AND PREPARATION METHOD AND USE THEREOF” (HANGZHOU HUIBO SCIENCE AND TECHNOLOGY CO., LTD, priority 2021, published 2024).
“Also recorded” adds a separate entry of the source. Read-outs that look alike come from different tables or passages of the source.

Legend:
[1] = system: full-thickness skin defect wound surfaces; experiment: Effect of Hst1-MAD cyclic peptide on wound repair in mice (Example 22): healing rate, histology, immunohistochemistry, immunofluorescence double staining, Western Blot; type: in vivo, C57 BL/6 mice
Experimental: […]. 36 healthy male special pathogen-free grade C57 BL/6 mice (purchased from Guangdong Experimental Animal Center) of 6-8 weeks old and weighing 22-28 g. They were intraperitoneally injected with 5 ml/kg of 1% pentobarbital sodium for anesthesia. After the mice had no corneal reflex, the hair on their backs was carefully removed and disinfected with alcohol. […] full-thickness skin defect wound surfaces were prepared on the back of each mouse by using a circular skin punch. […]. Each wound surface was added with 0.5 ml of four drugs respectively, and administration was conducted every day until the wound surfaces of the experimental groups healed. Photographs were taken on days 0, 3, 5, and 10 after surgery, and wound tissues were sampled on days 3, 5, and 10 for subsequent pathological staining.
was observed and photographed with a digital camera (see FIG. 19), and the wound healing rate was calculated (see FIG. 20). Wound healing rate=(wound area immediately after injury−unhealed wound area at each time point)÷wound area immediately after injury×100%.
The wound specimens were fixed in 4% paraformaldehyde for 48 hours, rinsed with tap water for 10 minutes, dehydrated with graded ethanol, permeabilized with xylene, and embedded in paraffin to prepare 4 μm thick sections. Some sections were taken and subjected to HE staining to detect an epidermal thickness and subjected to Masson staining to detect newly grown collagen. Through hematoxylin-cosin staining (HE), the effects of the four groups of drugs on newly grown epidermal at the wound surface on day 10 were evaluated (FIGS. 21 and 22). Through Masson staining, the effects of the four groups of drugs on newly grown collagen at the wound surface on days 5 and 10 were evaluated (FIGS. 23 and 24). 5 sections were taken from each mouse, and 5 fields of view were selected for each section. Data analysis was performed using the software Image-pro Plus.
and rehydrated, subjected to antigen thermal repair with a 0.1 mol/L citric acid buffer (with a pH value of 6.0) for 20 minutes, treated with hydrogen peroxide with a volume fraction of 10% for inactivation of endogenous peroxidase for 10 minutes, and blocked with 50 g/L of bovine serum albumin for 2 hours. It was added with a rabbit anti-mouse CD31 primary antibody (with a dilution ratio of 1:300) and a mouse anti-VEGF (with a dilution ratio of 1:100), incubated overnight at 4° C., and washed with PBS. It was rewarmed for 1 hour, washed with PBS, added dropwise with ready-to-use biotinylated goat anti-mouse and goat anti-rabbit IgG secondary antibodies, incubated for 2 hours, and washed with PBS. It was subjected to DAB development, hematoxylin counterstaining. gradient ethanol dehydration, xylene permeabilization, and resin blocking. 5 sections were taken from each mouse, and 5 fields of view were selected for each section. The sections were observed under a 400× inverted fluorescence microscope, and analyzed for the number of CD31-positive blood vessels (see FIG. 25) and VEGF expression amounts (see FIG. 26) by using Image-pro Plus software.
The specific steps were: the previous steps were the same as those of 1.3.3, and they were incubated with the antibodies MHCII (orb101661; 1:500; Biorbyt Biotechnology Co., Ltd., Wuhan, CN), CD11c (97585; 1:200; Cell Signaling Technology Inc., Boston, MA), CD68 (GB11067; 1:300; Servicebio Inc.), CD80 (GB11034; 1:300; Servicebio Inc.), CD206 (GB11062; 1:500; Servicebio Inc.), claudin1 (37-4900; 1:100; Thermo Fisher Scientific Co., Ltd, Shanghai, CN) and claudin2 (32-5600; 1:200; Thermo Fisher Scientific Co., Ltd.) at 4° C. overnight. The fluorescent-labeled secondary antibodies were incubated at room temperature for 1 h, followed by 4′,6-diamidino-2′-phenylindole (DAPI) (G1012; Google Biotechnology Co., Ltd., Wuhan, CN). The stained sections were photographed by using a fluorescence microscope (Nikon Eclipse TI-SR. Tokyo, Japan). […]

fibroblasts (NIH/3T3) = experiment: Scratch experiment, Hst1-MAD cyclic peptides (Example 23); type: cell-based; conditions: dose required to achieve the same pharmaceutical effect in the scratch experiment
Description: In this example, the propargylglycine-Hst1-MAD cyclic peptide, the homopropargylglycine-Hst1-MAD cyclic peptide, the dihomopropargylglycine-Hst1-MAD cyclic peptide and the linear Hst1 prepared in Examples 13, 14, and 15, and the Hst1-MAD head-to-tail cyclic peptide or N-terminal and C-terminal cyclized peptide prepared by the amide bond cyclization method provided by the literature of for example Sortase A as a tool for high-yield histatin cyclization, Jan G. M. Bolscher, The FASEB Journal. Research Communication, were adopted respectively, the reaction time was recorded, the yield of the reaction product was detected by HPLC, the proportion of side reactions in the reaction product was calculated, and activity comparison was performed. The activity comparison method was to calculate the dose required to achieve the same pharmaceutical effect through a scratch experiment. […] After 12 hours and 24 hours of culture, the scratched area of each group was calculated by using imageJ (Rawak Software, Inc. Germany) software, and the scratch area at 0 hour was an initial scratch area. The scratch healing rate was calculated in the following manner: W % (scratch healing rate)=(W0−Wt)/W0×100%, where W0=an initial scratch area, and Wt=a remaining scratch area; and the results were as shown in Table 14.

For “Linear Hst1-MAD: shortest sequence that maintains Hst1 activity, 20th to 32nd amino acids of Hst1, SEQ ID NO.13 (SHREFPFYGDYGS)”, the “inhibitory effects on inflammatory factors IL-6 and MIP-1β” value ([1]; Western Blot, 1 μM Click-Hst1-MAD, 1 μM Hst1-MAD) was “significantly better than those of the control group and the 10 μM Histatin1 group”, the “expression levels of Nrf2 and HO-1” value ([1]; day 3 after surgery, Western Blot, 1 μM Click-Hst1-MAD, 1 μM Hst1-MAD) was “increased compared with those in the Control group” and the VEGF expression amount ([1]; day 5, 1 μM Click-Hst1-MAD, 10 μM Histatin1, 1 μM Hst1-MAD compared with each other) was “comparable”. The “expression levels of the dermal collagen” value ([1]; day 5, 1 μM Hst1-MAD and 10 μM Histatin1 compared with each other) was “equivalent”, the “epidermal thickness at the wound surface” value ([1]; day 10, HE staining, 1 μM Click-Hst1-MAD, 1 μM Hst1-MAD, 10 μM Histatin1) was “thinnest epidermal thickness” and the Claudin1 expression intensity ([1]; day 10, immunofluorescence, 1 μM Click-Hst1-MAD, 1 μM Hst1-MAD, 10 μM Histatin1) was “equivalent expression level of Claudin1”. For the same substance, the “healing rate of the wound surface” value ([1]; days 3 and 5, 1 μM Click-Hst1-MAD, 1 μM Hst1-MAD linear peptide, 10 μM Histatin1) was “equivalent to that of the 10 μM Histatin linear peptide group”, the “number of dendritic cells (MHCII+ and CD11c+)” value ([1]; days 3 and 5 evaluated, 1 μM Click-Hst1-MAD, 1 μM Hst1-MAD, 10 μM Histatin1) was “slightly lower than that of the 10 μM Histatin1 group; also recorded: significantly higher than that in the Control group” and the “number of M1 macrophages (CD68+ and CD80+)” value ([1]; days 3 and 5 evaluated, 1 μM Hst1-MAD, 10 μM Histatin1) was “slightly higher than that in the 10 μM Histatin1 group; also recorded: lower than that in the Control group”. For the same substance, the “number of CD31-positive blood vessels” value ([1]; days 5 and 10, immunohistochemistry, 1 μM Click-Hst1-MAD, 1 μM Hst1-MAD, 10 μM Histatin1) was “significantly higher than that in the Control group” and the “Dosage of agents required for scratch test” value (fibroblasts (NIH/3T3)) was 8 µM.
With Hst1 cyclized through amide bonds the ring closure, conversion (amide bond) was 3%.
Work on “Cyclized Hst1 prepared by Sortase A enzymatic method” yielded a ring closure, conversion (enzyme bond, Sortase A) of 90%.
